Results taken from US10562848B2, “Inhibitors of TNF superfamily costimulatory interactions and methods for uses of the same” (UNIVERSITY OF MIAMI, priority 2015, dated 2020).
Read-outs that look alike come from different tables or passages of the source.

Tests used:
human CD40-CD40L = target: T1, human CD40-CD40L (Homo sapiens, UniProt P29965); experiment: Cell-free ELISA-type CD40-CD40L binding inhibition assay
T1 construct: purchased Enzo Life Sciences (San Diego, Calif.)
T1 sequence (P29965 116-261 limits assumed): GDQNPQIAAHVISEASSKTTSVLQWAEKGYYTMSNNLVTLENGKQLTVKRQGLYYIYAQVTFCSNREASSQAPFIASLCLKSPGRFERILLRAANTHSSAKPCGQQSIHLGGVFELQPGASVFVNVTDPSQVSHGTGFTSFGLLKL
Experimental: Compounds according to the disclosure were assessed for their ability to inhibit the binding of tagged ligands to plate-bound receptors using ELISA-type 96-well plate-based cell-free assays as described in the literature (see Margolles-Clark et al, J Mol Med 87:1133-1143 (2009); Margolles-Clark et al., Chem Biol Drug Des 76:305-313 (2010); Song et al., Br J Pharmacol 171:4955-4969 (2014); and Ganesan et al., Biochem Pharmacol 81:810-818 (2011)).
Recombinant receptors (hCD40:Fc, TNF-R1:Fc) and tagged ligands (hCD154, MegaCD40L, and TNF-α), were obtained from Enzo Life Sciences (San Diego, Calif.). Microtiter plates (Nunc F Maxisorp; 96-well) were coated overnight at 4° C. with 100 μL/well of Fc chimeric receptors diluted in PBS 7.2. This was followed by blocking with 200 μL/well of blocking solution (PBS 7.2, 0.05% Tween-20, 1% BSA) for 1 hour at room temperature. […] Either anti-FLAG-HRP or streptavidin-HRP conjugate was used to detect the bound FLAG-tagged or biotinylated ligand, respectively. Plates were washed three times before the addition of 120 μL/well of HRP substrate TMB (3, 3′, 5, 5′-tetramethylbenzidine) and kept in the dark for 15-30 min. The reaction was stopped using 30 μL 1M H2SO4, and the absorbance was read at 450 nm. Stock solutions of compounds at 10 mM in DMSO were used.
(§1) Typical concentrations used were as follows—receptors: 0.3 μg/mL for CD40, TNF-R1, and RANK; 0.6 μg/mL for BAFF-R, OX40, and 4-1BB; and 2 μg/mL for EGF-R-ligands: 0.02 μg/mL for CD40L, TNFα, and RANKL; 0.2 μg/ml for BAFF, OX40L, 4-1BBL; and 0.3 μg/mL for EGF. Assays were done in duplicate or triplicate per plate and repeated at least three times; the averaged data were normalized and used for data fitting and analysis. Binding data were fitted using the standard log inhibitor versus response model in GraphPad Prism to determine the corresponding IC50 values.

[1] = system: CD40L-induced proliferation of human CD19+ B cells; experiment: Inhibition of CD40L-induced human CD19+ B-cell proliferation (BrdU); assay type: cell-based
Experimental: Because CD40 stimulation is an important signal for B cell proliferation, soluble CD40L can concentration-dependently induce the proliferation of human B cells.
Inhibition of cell proliferation was determined in freshly isolated human CD19^+ B cells using the colorimetric cell proliferation ELISA BrdU kit from Roche Applied Science (Indianapolis, Ind.). B cells were isolated from the PBMC as follows. Briefly, cells were washed three times with medium (RPMI 1640) and incubated for 20 min at 4° C. with 20 μL/10^7 cells of anti-CD19 Microbeads (Miltenyi Biotech, Bergisch Gladbach, Germany), according to the MiniMacs protocol (Miltenyi Biotech). Cells were then purified using magnetic columns. […] Cells were cultured in 96 wells plates (100 μL/well) at a cell density of 2×10^5 cells/mL in IMDM medium supplemented with 5% FBS, 100 U/mL penicillin, streptomycin 100 μg/mL, insulin-transferrin-selenium-G (all materials from Invitrogen, San Diego, Calif.) and 10 […] (R&D Systems). […] After 48 h, BrdU labeling solution was added as recommended, and cells were cultivated for another 48 h. Detection of incorporated BrdU was carried out following the instructions of the ELISA BrdU kit.
Data are average±SD for n=3 independent experiments with triplicates for each condition using a standard BrdU assay (Roche).

OX40-OX40L = target: T2, OX40-OX40L (Homo sapiens, UniProt P23510+P43489); experiment: Cell-free ELISA-type OX40 binding inhibition assay; conditions: Table 2
T2 sequence (P43489 29-214 limits assumed): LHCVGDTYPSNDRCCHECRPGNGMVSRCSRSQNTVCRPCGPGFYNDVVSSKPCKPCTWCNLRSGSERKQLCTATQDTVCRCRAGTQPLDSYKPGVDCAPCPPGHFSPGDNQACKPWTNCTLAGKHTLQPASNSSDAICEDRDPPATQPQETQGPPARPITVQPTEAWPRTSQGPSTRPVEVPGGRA
T2 sequence (P23510 51-183 limits assumed): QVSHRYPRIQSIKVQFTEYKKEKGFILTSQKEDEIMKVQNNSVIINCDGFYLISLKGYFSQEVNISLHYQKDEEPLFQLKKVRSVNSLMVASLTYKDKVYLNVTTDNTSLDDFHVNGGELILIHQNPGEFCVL
Experimental: as §1

[2] = system: TNFSF costimulatory interactions; conditions: literature; cited from earlier work
[3] = system: CD40L-induced NF-κB activation in CD40 sensor cells (HEK Blue); experiment: Inhibition of CD40L-induced NF-κB activation in CD40 sensor cells (HEK-Blue); assay type: cell-based, human; conditions: CD40L 20 ng/mL, 18 h
Excerpt: Activities of the compounds of the disclosure were confirmed in cell-based assays. As a first example, TNF-R1 and CD40 expressing sensor cells (HEK-Blue; InvivoGen, San Diego, Calif.) were used as described in the literature (see Song et al., Br J Pharmacol 171:4955-4969 (2014) and Cechin et al., Steroids 85:36-43 (2014)).
Cells were maintained in DMEM at 80% confluence for each experiment. Cells were trypsinized and re-suspended in the same medium with 1% FBS and seeded on 96-well microtiter plates at a density of 1×10^5 cells/well in the absence and presence of various concentrations of compounds diluted in the same media. For ligand mediated stimulation, final concentrations of recombinant human TNFα (2 ng/mL) and CD40L (20 ng/mL) were maintained in the wells for this purpose. After 18-hour incubation at 37° C., 20 μL supernatant of each well were taken and added to another 96-well microtiter plate containing 180 μL/well of QUANTI-Blue (InvivoGen, CA). The level of SEAP was determined after 30-minute incubation at 37° C. by reading at 625 nm using a spectrophotometer. […] Data are average±SD (normalized to CD40L-activated cells alone) for n=4 independent experiments with duplicates for each condition.

Compound | inhibition of human CD40-CD40L binding (in words) (human CD40-CD40L; cell-free binding) | IC50 (human CD40-CD40L; IC50 CD40, Table 2) | IC50 (OX40-OX40L) | activity of other small molecule inhibitors (in words) [2] | other results
O=C([O-])C1=NN(c2ccc(S(=O)(=O)[O-])cc2)C(=O)C1N=Nc1ccc(S(=O)(=O)[O-])cc1.[Na+].[Na+].[Na+] (stereo not shown) [Tartrazine, reference compound] | inactive |  |  |  | inhibition of CD40L-induced human CD19+ B-cell proliferation (in words) [1]: no proliferation inhibiting activity
O=C(Nc1ccc(-c2ccc(C(=O)Nc3cccc4cccc(S(=O)(=O)O)c34)cc2)cc1)c1ccc2[nH]nnc2c1 [Compound 21080] | concentration-dependent inhibition | 1 µM | 26.3 µM |  | 
mordant brown |  |  |  | active in the low μM range | 
O=C(Nc1ccc2c(O)c(N=Nc3ccc(N=Nc4ccc(S(=O)(=O)[O-])cc4)cc3S(=O)(=O)[O-])c(S(=O)(=O)[O-])cc2c1)Nc1ccc2c(O)c(N=Nc3ccc(N=Nc4ccc(S(=O)(=O)[O-])cc4)cc3S(=O)(=O)[O-])c(S(=O)(=O)[O-])cc2c1.[Na+].[Na+].[Na+].[Na+].[Na+].[Na+] [DR80, direct red 80, reference compound] |  |  |  | active in the low μM range | IC50 [3]: 42.7 µM; IC50 (human CD40-CD40L; cell-free binding, n=3 independent experiments, read-out: IC50, inhibition of the CD40-CD40L interaction): 2.26 µM
Nc1ccc2cc(S(=O)(=O)[O-])cc(O)c2c1N=Nc1ccc(-c2ccc(N=Nc3c(N)ccc4cc(S(=O)(=O)[O-])cc(O)c34)cc2)cc1.[Na+].[Na+] [chlorazol violet N] |  |  |  | active in the low μM range | 
Nc1ccc(C(=O)Nc2ccc(-c3ccc(C(=O)Nc4cccc5cccc(S(=O)(=O)O)c45)cc3)cc2)cc1 [Compound 21042] | concentration-dependent inhibition | 301 µM | 12.8 µM |  | 
O=C(Nc1ccc(-c2ccc(C(=O)Nc3ccc(S(=O)(=O)O)c4ccccc34)cc2)cc1)c1ccc([N+](=O)[O-])cc1 [Compound 25041] | concentration-dependent inhibition | 2.3 µM | 7 µM |  | 
Cc1cc(S(=O)(=O)[O-])ccc1N=Nc1ccc(N=Nc2c(O)ccc3cccc(S(=O)(=O)[O-])c23)c(C)c1.[Na+].[Na+] [crocein scarlet 7B] |  |  |  | active in the low μM range | 
COC(=O)c1cccc2c(NC(=O)c3ccc(-c4ccc(NC(=O)c5ccc([N+](=O)[O-])cc5)cc4)cc3)cccc12 [Compound 24541] |  |  | 6560 µM |  | IC50 (human CD40-CD40L; Table 2, read-out: IC50 CD40): 916 µM
